Test results reported in publication PMC4694766, “Modeling-Enabled Characterization of Novel NLRX1 Ligands” (PLoS ONE, 2015).
“Also recorded” adds a separate entry of the source. Read-outs that look alike come from different tables or passages of the source. Blank lines part the entries; values can stand above or below the molecule they belong to.

How the values were obtained:
cNLRX1 (wild type) = target: T1, cNLRX1 (wild type) (Homo sapiens, UniProt Q86UT6); experiment: SPR (Biacore T200) direct binding to immobilized cNLRX1 wild type; details: for kon: NLRX1: WT, read-out: ka
T1 construct: cNLRX1 (AA 667–970) was cloned into pPinkHC-Alpha-SDK; polyhistidine (6x); made in house; host or cells: Pichia pastoris (Strain 4: ade2, prb1, pep4)
Procedure: White colonies on drop adenine media were screened for protein expression via small-scale induction and both pellets and supernatants were screened for expression via western blot using an anti-polyhistidine (6x) antibody (Immunology Consultants Laboratory, Inc). […] Every 24 hours post induction cells were fed 10 mL of methanol and 10% filter sterilized sorbitol for 4 days post induction. Cells were subsequently harvested at 10,000 x g for 15 min and were either used immediately or stored at -80°C.
Cells were re-suspended in 40 mL of ice-cold lysis buffer (50mM Sodium Phosphate, 200mM sodium chloride, 25mM Sucrose, 0.1% T-100, pH = 7.2) and sonicated 8 times at max amplitude using a 15 sec ON 45 sec OFF cycle. Lysed cells were centrifuged at 15,000 x g for 30 min at 4°C. Supernatant were loaded onto a 150 mL Super-loop and purified using a programmed immobilized metal affinity chromatography gradient protocol on the AKTA prime plus. Bound protein was washed with 40 column volumes of wash buffer (50 mM sodium phosphate buffer, 300 mM sodium chloride, 20 mM imidazole, pH 8.0) and eluted in 1 mL fractions over a 0.02-1M imidazole 40 mL gradient. Purity was assessed via SDS-PAGE. Proteins were further purified via gel filtration chromoatograhy using a Superdex75 column (16/600) in 50 mM sodium phosphate, 300 mM sodium chloride pH 8.0. […] Protein was dialyzed (1:1000) twice at 4°C for a minimum of 8 hours in appropriate buffers for downstream assays.
(§1) Direct binding experiments were performed via the Biacore T200 Surface Plasmon Resonance (SPR) Technology (Georgetown University). […] The cNLRX1 was immobilized to a CM4 or CM5 chip by amine coupling method. Two adjacent surfaces were activated by injection of a 1:1 (v:v) mixture of 0.1 M N-Hydroxysuccinimide (NHS) and 0.4 M 1-Ethyl-3-(3-dimethyl-aminopropyl)-carbodiimide hydrochloride (EDC) for 720 seconds. Experimental flow cell was then injected with the cNLRX1 that was diluted in 10 mM pH 4.0 sodium acetate buffer to a final concentration of 25 μg/mL. Both experimental and the reference flow cells were inactivated by injection of 1M Ethanolamine-HCl pH 8.0 for 720 seconds.
(§2) Negative control compound, 1,14-bis (3,b-dimethoxypheny1)-tetradecane, was tested at a concentration of 20 μM. Injection time was 60 seconds and dissociation time was 300 seconds. […] Data was analyzed by using the BiaEvaluation software (GE Healthcare) with 1:1 binding model for steady state affinity. Raw data was exported and graphed using Prizm for Mac v5.0d and excel.

[1] = target: T2, cNLRX1 ASP677, PHE680, PHE681, and GLU684 to alanine mutant (Mutant) (Homo sapiens, UniProt Q86UT6, D677A/E684A/F680A/F681A); experiment: SPR (Biacore T200) direct binding to immobilized Mutant cNLRX1
T2 construct: cNLRX1 (AA 667–970) was cloned into pPinkHC-Alpha-SDK; polyhistidine (6x); made in house
T2 sequence (Q86UT6 667-970 D677A/F680A/F681A/E684A limits assumed): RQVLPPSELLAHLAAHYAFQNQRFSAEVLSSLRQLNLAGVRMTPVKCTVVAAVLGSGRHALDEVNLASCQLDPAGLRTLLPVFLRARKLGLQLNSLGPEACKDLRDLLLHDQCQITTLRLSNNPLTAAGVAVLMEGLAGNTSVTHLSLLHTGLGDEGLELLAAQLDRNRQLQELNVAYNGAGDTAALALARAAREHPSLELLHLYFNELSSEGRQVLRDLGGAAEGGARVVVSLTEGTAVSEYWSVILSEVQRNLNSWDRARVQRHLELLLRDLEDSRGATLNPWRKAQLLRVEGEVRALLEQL
Procedure: as §1, §2

[2] = test system: NF-κB p65 activity in BMDMs from wild type and Nlrx1-/- mice; experiment: NF-κB p65 ELISA (TransAM) on LPS-stimulated bone marrow derived macrophages; assay type: cell-based, mouse; details: LPS 1μg/ml 12 hours, then 40 μM compound 12 hours
Procedure: Bone marrow derived macrophages (BMDM)s were isolated from hind legs of wild type and Nlrx1-/- mice in sterile conditions and cultured for 7 days as described. […] Nuclear extraction was performed on colon homogenates using the Active Motif Nuclear Extraction Kit (Carlsbad, CA) as previously described. ELISA was performed on nuclear fractions using the Active Motif TransAM® NF-κB p65 kit according to the manufacturer’s instructions.
The NF-κB activation by NLRX1 ligands was detected and quantified by using the Trans-AM™ NF-κB p65 ELISA-based assay (Active Motif, Carlsbad, CA) as described in the manual of the Active Motif TransAM® NF-κB p65 kit.
Fig 4 Effect of NLRX1 disruption on NF-κB activation in Bone marrow derived macrophage (BMDM). […] Nuclear extraction was performed on colon homogenates using the Active Motif Nuclear Extraction Kit (Carlsbad, CA). ELISA was performed on both cytoplasmic and nuclear fractions using the Active Motif TransAM® NF-κB p65 kit according to the manufacturer’s instructions. Letter superscripts indicate significant (P-value < 0.05) differences by ANOVA.

DSS-induced colitis = details: for disease activity: 8% DSS six days, PUA 40 mg/kg oral gavage daily vs PBS
Procedure: C57BL/6J wild-type (WT) and Nlrx1-/- mice (n = 10) ranging from 8–10 weeks of age were administered 8% DSS (average […] molecular weight) in drinking water for six days. Control mice received tap water. […] On day 6, mice were euthanized via carbon dioxide narcosis with secondary cervical dislocation. All mice were weighed and scored daily. Clinical scores were based on physical appearance (0–3), fecal consistency (0–3), presence of rectal bleeding (0–4), and weight loss (0–3) and assigned a compounded score for overall disease activity (0–4).
Total RNA was isolated from whole mouse colon using a Qiagen (Germantown, MD) RNA isolation mini kit. Complementary DNA (cDNA) was generated from each sample (1 μg RNA) using the iScript cDNA synthesis kit (Bio-Rad). Standards were produced through a polymerase chain reaction on the cDNA with Taq DNA polymerase from Invitrogen. The amplicon was purified using the Mini-Elute PCR purification kit from Qiagen. Expression levels were obtained through quantitative real-time PCR on a Bio-Rad (Hercules, CA) CFX 96 Thermal Cycler using the Bio-Rad SYBR Green Supermix. For analysis, the starting amount of anti-microbial peptide cDNA was compared to that of beta-actin, as a control. cDNA concentrations for genes of interest were examined by RT-PCR as described.
Colonic samples were fixed in 10% buffered formalin, embedded in paraffin, processed routinely and sectioned at 5 μm. Sections were stained with hematoxylin and eosin (H&E) and then examined and graded using an Olympus microscope (Olympus America, Center Valley, PA) and ImagePro software. Sections were graded for leukocytic infiltration (0–4), epithelial erosion (0–4) and mucosal thickening (0–4).

PPARγ = details: cited from earlier work
[3] = test system: DSS-induced colitis and spontaneous pan-enteritis in IL-10−/− mice; details: cited from earlier work
[4] = target: the molecule itself; experiment: SEC; Superdex 75 column (16/600) at 1 ml/min in 50 mM sodium phosphate, 300 mM sodium chloride, pH 8; blue dextran run alongside
[5] = Nlrx1-/- mice, day six of DSS, PUA 40 mg/kg oral gavage
[6] = WT mice, day six of DSS, PUA 40 mg/kg oral gavage

Kd (cNLRX1 (wild type)): 14.6 µM
kon (cNLRX1 (wild type); SPR): 2320 M⁻¹ s⁻¹
equilibrium constant of dissociation (KD) [1]: 338 µM
Molecule: CCCC\C=C/C=C/C=C\CCCCCCCC(=O)O [PUA, punicic acid]
NF-κB activity ([2]; Nlrx1-/- BMDMs): abrogates the effect
NF-κB activity ([2]; wild type BMDMs): suppressed the NF-κB activity
disease activity (DSS-induced colitis; Nlrx1-/- mice): no observable inhibition of colitis
TNFα mRNA expression in whole colon (DSS-induced colitis; [5]): overall unaffected
colon histopathology (inflammatory amelioration) (DSS-induced colitis; [5]): failed to show any inflammatory amelioration
disease activity (DSS-induced colitis; WT mice): significant symptom regulation
TNFα mRNA expression in whole colon (DSS-induced colitis; [6]): significantly lower
colon histopathology scores (epithelial erosion, leukocytic infiltration, mucosal thickening) (DSS-induced colitis; [6]): significantly lower scores
binding and activation of PPARγ (PPARγ): robustly bind and activate PPARγ
effect on colitis ([3]; DSS-induced colitis and spontaneous pan-enteritis in IL-10−/− mice): ameliorate DSS-induced colitis and spontaneous pan-enteritis

Kd (cNLRX1 (wild type); SPR, cNLRX1 WT, read-out: equilibrium constant of dissociation (KD)): 2.3 µM
Molecule: CC/C=C\C/C=C\C/C=C\C/C=C\C/C=C\C/C=C\CCC(=O)O [DHA, docosahexaenoic acid]
NF-κB activity ([2]; Nlrx1-/- BMDMs): abrogates the effect
NF-κB activity ([2]; wild type BMDMs): suppressed the NF-κB activity

Kd (cNLRX1 (wild type)): 13.3 µM
kon (cNLRX1 (wild type); SPR): 3420 M⁻¹ s⁻¹
equilibrium constant of dissociation (KD) [1]: 170 µM
Molecule: CCCCC=CC=CC=CCCCCCCCC(=O)O [ESA, eleostearic acid]
effect on gut inflammation [3]: able to regulate gut inflammation

Molecule: COc1cc(CCCCCCCCCCCCCCc2cc(OC)cc(OC)c2)cc(OC)c1 [1,14-bis (3,b-dimethoxypheny1)-tetradecane, reference compound]
binding to cNLRX1 by SPR (in words) (cNLRX1 (wild type); ssRNA 0.5-8 μM, negative control injected at 20 μM): failed to bind cNLRX1; also recorded: No binding was observed

B1: C-terminal fragment of the human NLRX1 (cNLRX1), AA 667-970 (domain or fragment, UniProt Q86UT6 667-970, looked up)
chain: RQVLPPSELLDHLFFHYEFQNQRFSAEVLSSLRQLNLAGVRMTPVKCTVVAAVLGSGRHALDEVNLASCQLDPAGLRTLLPVFLRARKLGLQLNSLGPEACKDLRDLLLHDQCQITTLRLSNNPLTAAGVAVLMEGLAGNTSVTHLSLLHTGLGDEGLELLAAQLDRNRQLQELNVAYNGAGDTAALALARAAREHPSLELLHLYFNELSSEGRQVLRDLGGAAEGGARVVVSLTEGTAVSEYWSVILSEVQRNLNSWDRARVQRHLELLLRDLEDSRGATLNPWRKAQLLRVEGEVRALLEQL
notes: NLRX1, human, C-terminal fragment, AA 667-970; Cloned into pPinkHC-Alpha-SDK; The vector may add a secretion signal, but the protein was purified from lysed cells; also called cNLRX1 wildtype; cNLRX1 (WT)
binding result [4]: binds
